Experiments:
Cytochrome P450 2D6 = Cytochrome P450 2D6 (Homo sapiens, UniProt P10635); assay: Inhibition of CYP2D6 (unknown origin); assay type: ADME
Cytochrome P450 2C19 = Cytochrome P450 2C19 (Homo sapiens, UniProt P33261); assay: Inhibition of CYP2C19 (unknown origin); assay type: ADME
Cytochrome P450 1A2 [1] = target: T1, Cytochrome P450 1A2 (Homo sapiens, UniProt P05177); assay: Inhibition of CYP1A2 (unknown origin); assay type: ADME
T1 sequence (P05177 whole entry): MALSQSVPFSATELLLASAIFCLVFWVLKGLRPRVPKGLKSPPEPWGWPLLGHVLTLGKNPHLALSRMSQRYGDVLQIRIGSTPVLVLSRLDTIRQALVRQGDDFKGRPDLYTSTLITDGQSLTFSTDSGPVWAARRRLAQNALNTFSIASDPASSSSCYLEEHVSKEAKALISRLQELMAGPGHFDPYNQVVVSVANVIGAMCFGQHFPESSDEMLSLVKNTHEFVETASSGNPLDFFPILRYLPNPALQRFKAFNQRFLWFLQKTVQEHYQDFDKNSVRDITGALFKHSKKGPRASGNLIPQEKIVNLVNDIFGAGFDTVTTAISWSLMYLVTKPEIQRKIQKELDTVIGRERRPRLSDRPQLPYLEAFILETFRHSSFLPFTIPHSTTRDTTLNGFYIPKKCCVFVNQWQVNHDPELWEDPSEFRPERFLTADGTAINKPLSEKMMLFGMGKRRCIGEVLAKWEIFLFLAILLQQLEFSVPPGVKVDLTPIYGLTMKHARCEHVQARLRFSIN

Cytochrome P450 2C9 = Cytochrome P450 2C9 (Homo sapiens, UniProt P11712); assay: Inhibition of CYP2C9 (unknown origin); assay type: ADME
Cytochrome P450 3A4 = Cytochrome P450 3A4 (Homo sapiens, UniProt P08684); assay: Inhibition of CYP3A4 (unknown origin); assay type: ADME
Activin receptor type-1 = target: T2, Activin receptor type-1 (Homo sapiens, UniProt Q04771); assay: Inhibition of human ALK2 by […] assay
T2 sequence (Q04771 whole entry): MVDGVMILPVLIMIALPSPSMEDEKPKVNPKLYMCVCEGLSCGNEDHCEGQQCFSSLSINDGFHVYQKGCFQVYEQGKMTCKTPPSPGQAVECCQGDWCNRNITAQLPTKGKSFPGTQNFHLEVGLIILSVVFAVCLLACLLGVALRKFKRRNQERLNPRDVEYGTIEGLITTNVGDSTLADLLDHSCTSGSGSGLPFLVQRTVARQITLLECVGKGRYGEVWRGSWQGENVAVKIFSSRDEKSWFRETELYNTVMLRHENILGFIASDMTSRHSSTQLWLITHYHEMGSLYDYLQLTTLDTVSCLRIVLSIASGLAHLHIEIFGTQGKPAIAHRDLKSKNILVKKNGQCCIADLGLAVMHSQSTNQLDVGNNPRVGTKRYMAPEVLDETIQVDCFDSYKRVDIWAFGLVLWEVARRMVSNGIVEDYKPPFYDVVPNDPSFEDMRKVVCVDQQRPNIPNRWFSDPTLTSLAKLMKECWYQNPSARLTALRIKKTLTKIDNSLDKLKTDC

[2] = Total AUC in BALB/c mouse at 10 mg/kg, po; assay type: ADME, organism-based; parameters: dose 10 mg/kg, route po; settings: in vivo
[3] = Cmax in BALB/c mouse at 10 mg/kg, po; assay type: ADME, organism-based; parameters: dose 10 mg/kg, route po; settings: in vivo
[4] = Total AUC in BALB/c mouse at 2 mg/kg, iv; assay type: ADME, organism-based; parameters: dose 2 mg/kg, route iv; settings: in vivo
[5] = Oral bioavailability in BALB/c mouse at 10 mg/kg; assay type: ADME, organism-based; settings: in vivo
[6] = Inhibition of mouse CYP3A4; assay type: ADME
[7] = Stability of the compound in human plasma assessed as half life; assay type: ADME, cell-free
[8] = Inhibition of mouse CYP2C9; assay type: ADME
[9] = Stability of the compound in mouse plasma assessed as half life; assay type: ADME, cell-free
[10] = Half life in BALB/c mouse at 10 mg/kg, po; assay type: ADME, organism-based; settings: in vivo
[11] = Volume of distribution in BALB/c mouse at 2 mg/kg, iv; assay type: ADME, organism-based; settings: in vivo
[12] = Inhibition of mouse CYP2C8; assay type: ADME
[13] = Clearance in BALB/c mouse at 2 mg/kg, iv; assay type: ADME, organism-based; settings: in vivo
[14] = Half life in BALB/c mouse at 2 mg/kg, iv; assay type: ADME, organism-based; settings: in vivo
[15] = Tmax in BALB/c mouse at 10 mg/kg, po; assay type: ADME, organism-based; settings: in vivo
[16] = Metabolic stability in human liver microsomes assessed as intrinsic clearance; assay type: ADME, Microsome; settings: read-out: CLH
Cytochrome P450 1A2 [17] = target: T3, Cytochrome P450 1A2 (Mus musculus, UniProt P00186); assay: Inhibition of mouse CYP1A2; assay type: ADME
T3 sequence (P00186 whole entry): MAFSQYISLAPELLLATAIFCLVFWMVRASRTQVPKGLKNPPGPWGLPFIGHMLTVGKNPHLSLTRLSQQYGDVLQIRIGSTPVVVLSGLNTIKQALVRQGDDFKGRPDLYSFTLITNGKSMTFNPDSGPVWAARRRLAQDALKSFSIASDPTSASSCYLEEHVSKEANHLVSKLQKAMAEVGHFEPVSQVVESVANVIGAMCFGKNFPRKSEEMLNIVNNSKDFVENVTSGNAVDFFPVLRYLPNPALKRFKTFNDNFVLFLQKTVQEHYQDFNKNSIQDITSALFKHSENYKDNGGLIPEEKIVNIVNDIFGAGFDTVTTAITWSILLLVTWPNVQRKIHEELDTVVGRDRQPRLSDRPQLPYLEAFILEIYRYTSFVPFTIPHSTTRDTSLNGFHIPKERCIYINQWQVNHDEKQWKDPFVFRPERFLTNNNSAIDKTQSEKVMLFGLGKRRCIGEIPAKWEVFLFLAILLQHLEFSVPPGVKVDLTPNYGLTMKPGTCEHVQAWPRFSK

[18] = Inhibition of mouse CYP2D6; assay type: ADME
TGF-beta receptor type-1 [19] = target: T4, TGF-beta receptor type-1 (Homo sapiens, UniProt P36897); assay: Inhibition of ALK5 in human Hs-578T cells assessed as effect of TGF-beta-induced […] phosphorylation; assay type: cell-based
T4 sequence (P36897 whole entry): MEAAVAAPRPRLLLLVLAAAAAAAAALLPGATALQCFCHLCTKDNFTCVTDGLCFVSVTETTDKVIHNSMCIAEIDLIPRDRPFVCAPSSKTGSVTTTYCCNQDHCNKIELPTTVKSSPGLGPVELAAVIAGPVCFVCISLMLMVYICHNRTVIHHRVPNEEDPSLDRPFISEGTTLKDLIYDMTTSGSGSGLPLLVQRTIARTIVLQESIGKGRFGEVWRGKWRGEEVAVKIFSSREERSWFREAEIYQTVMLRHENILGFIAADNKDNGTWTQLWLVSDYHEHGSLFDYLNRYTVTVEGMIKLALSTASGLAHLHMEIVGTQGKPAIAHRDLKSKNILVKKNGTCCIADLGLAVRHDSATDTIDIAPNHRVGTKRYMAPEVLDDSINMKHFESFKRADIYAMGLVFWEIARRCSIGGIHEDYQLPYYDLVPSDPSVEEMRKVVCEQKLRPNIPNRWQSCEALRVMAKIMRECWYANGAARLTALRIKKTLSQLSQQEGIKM

TGF-beta receptor type-1 [20] = target: T4, TGF-beta receptor type-1; assay: Inhibition of human ALK5 by Kinase Glo luminescence assay

Cytochrome P450 2D6, sequence (P10635 whole entry): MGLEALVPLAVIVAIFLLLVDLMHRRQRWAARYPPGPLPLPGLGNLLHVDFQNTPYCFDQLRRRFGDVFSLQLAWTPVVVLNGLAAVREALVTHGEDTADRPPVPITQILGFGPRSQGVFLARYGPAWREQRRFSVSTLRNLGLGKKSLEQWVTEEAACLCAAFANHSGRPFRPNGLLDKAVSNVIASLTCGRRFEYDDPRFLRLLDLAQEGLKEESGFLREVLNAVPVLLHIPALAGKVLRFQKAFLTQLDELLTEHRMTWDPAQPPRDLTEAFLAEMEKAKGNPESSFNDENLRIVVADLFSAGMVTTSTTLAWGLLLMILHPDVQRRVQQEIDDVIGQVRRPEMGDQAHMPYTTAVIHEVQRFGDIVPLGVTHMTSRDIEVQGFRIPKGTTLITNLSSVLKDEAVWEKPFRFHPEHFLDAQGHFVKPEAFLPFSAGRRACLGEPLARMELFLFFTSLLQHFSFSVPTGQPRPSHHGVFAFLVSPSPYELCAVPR
Cytochrome P450 3A4, sequence (P08684 whole entry): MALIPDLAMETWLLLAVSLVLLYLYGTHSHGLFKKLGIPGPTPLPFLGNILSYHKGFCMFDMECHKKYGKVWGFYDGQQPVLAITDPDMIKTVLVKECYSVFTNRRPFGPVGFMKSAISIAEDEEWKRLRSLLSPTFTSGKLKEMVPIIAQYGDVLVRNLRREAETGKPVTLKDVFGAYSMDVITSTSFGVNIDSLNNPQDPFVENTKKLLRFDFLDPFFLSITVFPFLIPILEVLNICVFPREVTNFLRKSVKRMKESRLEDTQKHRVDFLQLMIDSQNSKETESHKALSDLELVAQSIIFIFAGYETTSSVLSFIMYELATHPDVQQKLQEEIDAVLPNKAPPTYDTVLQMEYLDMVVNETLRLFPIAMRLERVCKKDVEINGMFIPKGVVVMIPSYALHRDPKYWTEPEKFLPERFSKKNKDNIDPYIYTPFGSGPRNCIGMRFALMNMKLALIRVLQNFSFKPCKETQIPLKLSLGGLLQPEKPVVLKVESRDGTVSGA
Cytochrome P450 2C19, sequence (P33261 whole entry): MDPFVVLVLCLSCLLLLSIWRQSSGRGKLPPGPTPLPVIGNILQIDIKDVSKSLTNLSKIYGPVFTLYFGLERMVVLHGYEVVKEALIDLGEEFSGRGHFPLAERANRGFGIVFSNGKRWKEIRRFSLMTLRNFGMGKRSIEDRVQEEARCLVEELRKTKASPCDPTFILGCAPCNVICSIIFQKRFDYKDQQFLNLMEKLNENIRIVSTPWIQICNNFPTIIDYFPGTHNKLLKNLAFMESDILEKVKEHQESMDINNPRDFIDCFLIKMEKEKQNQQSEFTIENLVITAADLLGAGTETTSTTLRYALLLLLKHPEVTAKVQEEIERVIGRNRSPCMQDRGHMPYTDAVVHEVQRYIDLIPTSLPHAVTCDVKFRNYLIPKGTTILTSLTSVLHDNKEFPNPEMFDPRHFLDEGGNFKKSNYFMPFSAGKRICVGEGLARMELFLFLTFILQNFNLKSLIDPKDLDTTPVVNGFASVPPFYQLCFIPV
Cytochrome P450 2C9, sequence (P11712 whole entry): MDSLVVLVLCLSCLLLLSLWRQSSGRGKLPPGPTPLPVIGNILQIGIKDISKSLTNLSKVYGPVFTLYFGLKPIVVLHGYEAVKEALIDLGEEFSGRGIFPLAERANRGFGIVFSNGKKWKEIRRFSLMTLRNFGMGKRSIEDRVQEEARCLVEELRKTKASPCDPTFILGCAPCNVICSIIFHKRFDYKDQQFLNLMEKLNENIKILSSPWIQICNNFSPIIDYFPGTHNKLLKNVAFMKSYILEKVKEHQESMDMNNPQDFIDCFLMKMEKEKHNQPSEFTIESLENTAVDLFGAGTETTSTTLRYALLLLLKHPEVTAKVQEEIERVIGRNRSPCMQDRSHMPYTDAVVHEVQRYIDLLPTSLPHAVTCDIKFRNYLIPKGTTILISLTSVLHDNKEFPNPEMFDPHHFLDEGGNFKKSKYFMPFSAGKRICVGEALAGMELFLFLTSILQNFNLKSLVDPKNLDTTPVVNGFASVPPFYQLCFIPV

| Compound | IC50 (Cytochrome P450 2D6) [µM] | IC50 (Cytochrome P450 2C19) [µM] | IC50 (Cytochrome P450 1A2 [1]) [µM] | IC50 (Cytochrome P450 2C9) [µM] | IC50 (Cytochrome P450 3A4) [µM] | IC50 (Activin receptor type-1) [µM] | also measured |
| --- | --- | --- | --- | --- | --- | --- | --- |
| Cc1cccc(-c2[nH]c(NCc3ccc(F)cc3F)nc2-c2ccc3[nH]ncc3c2)n1 | 5.8 | 3.3 | 8.7 | 0.5 | > 10 | – | – |
| Cc1cccc(-c2[nH]c(NCc3ccc(Cl)c(Cl)c3)nc2-c2ccc3[nH]ncc3c2)n1 | > 10 | > 10 | > 10 | > 10 | > 10 | – | – |
| Cc1cccc(-c2[nH]c(NCc3cccc(F)c3)nc2-c2ccc3[nH]ncc3c2)n1 | 6.7 | 8.6 | > 10 | 1.1 | > 10 | > 10 | – |
| Cc1cccc(-c2[nH]c(NCc3cccc(F)c3F)nc2-c2ccc3[nH]ncc3c2)n1 | 6.9 | 4.3 | > 10 | 0.6 | > 10 | – | – |
| Cc1cccc(-c2[nH]c(NCc3ccc(F)c(F)c3)nc2-c2ccc3[nH]ncc3c2)n1 | 4.1 | 4.3 | 8.6 | 0.4 | > 10 | – | – |
| Cc1cccc(-c2[nH]c(NCc3ccccc3F)nc2-c2ccc3[nH]ncc3c2)n1 | 8.8 | 7.2 | > 10 | 1.4 | > 10 | – | – |
| Cc1cccc(-c2[nH]c(NCc3ccc(Cl)cc3F)nc2-c2ccc3[nH]ncc3c2)n1 | 6.7 | 3.1 | 8.8 | 0.4 | 8.7 | – | – |
| CCn1ncc2cc(-c3nc(NCc4cccc(F)c4)[nH]c3-c3cccc(C)n3)ccc21 | – | – | – | – | – | > 10 | – |
| Cc1cccc(-c2[nH]c(NCc3cccc(Cl)c3F)nc2-c2ccc3[nH]ncc3c2)n1 | 4.8 | 3.6 | > 10 | 0.5 | 8 | – | – |
| [2H]C([2H])([2H])n1ncc2cc(-c3nc(NCc4cccc(F)c4)[nH]c3-c3cccc(C)n3)ccc21 | – | – | – | – | – | – | AUC [2]: 3.94 µg·h/mL; Cmax [3]: 1.72 µg/mL; AUC [4]: 1.17 µg·h/mL; bioavailability [5]: 67.6%; IC50 [6]: 16 µM; half-life [7]: > 2 h; IC50 [8]: 22.1 µM; half-life [9]: > 2 h; half-life [10]: 1.6 h; Vd [11]: 3.8 L/kg; IC50 [12]: 38.7 µM; clearance [13]: 1.74 L/h/kg; half-life [14]: 1.5 h; Tmax [15]: 0.4 h; microsomal CLint [16]: 23.1 µL/min/mg; IC50 (Cytochrome P450 1A2 [17]): 67 µM; IC50 [18]: 20.5 µM |
| Cc1cccc(-c2[nH]c(NCc3cccc(F)c3)nc2-c2ccc3c(cnn3C)c2)n1 | > 10 | > 10 | > 10 | > 10 | > 10 | > 10 | AUC [2]: 3.03 µg·h/mL; Cmax [3]: 1.53 µg/mL; AUC [4]: 0.87 µg·h/mL; bioavailability [5]: 69.6%; IC50 [6]: 20.5 µM; half-life [7]: > 2 h; IC50 [8]: 27.8 µM; half-life [9]: > 2 h; half-life [10]: 1.6 h; Vd [11]: 5.1 L/kg; IC50 [12]: 34.1 µM; clearance [13]: 2.3 L/h/kg; half-life [14]: 1.6 h; Tmax [15]: 0.4 h; microsomal CLint [16]: 29.8 µL/min/mg; IC50 (Cytochrome P450 1A2 [17]): 71.5 µM; IC50 [18]: 26.2 µM |
| Cc1cccc(-c2[nH]c(NCc3cccc(F)c3)nc2-c2ccc3c(cnn3S(C)(=O)=O)c2)n1 | > 10 | > 10 | 9.4 | > 10 | > 10 | > 10 | IC50 (TGF-beta receptor type-1 [19]): > 0.3 µM |
| Cc1cccc(-c2[nH]c(NCc3ccccc3F)nc2-c2ccc3[nH]ccc3c2)n1 | – | – | – | – | – | – | IC50 (TGF-beta receptor type-1 [19]): > 0.3 µM; IC50 (TGF-beta receptor type-1 [20]): > 10 µM |
| Cc1cccc(-c2[nH]c(NCc3cccc(F)c3)nc2-c2ccc3c(cnn3C(F)F)c2)n1 | > 10 | > 10 | 8.5 | > 10 | > 10 | > 10 | – |

From ChEMBL document CHEMBL5252597, “Synthesis and biological evaluation of N-(3-fluorobenzyl)-4-(1-(methyl-d3)-1H-indazol-5-yl)-5-(6-methylpyridin-2-yl)-1H-imidazol-2-amine as a novel, potent ALK5 receptor inhibitor” (Bioorg Med Chem Lett, 2023)
